According to PMC6548547 (Journal of medicinal chemistry, 2018):
“Also recorded” adds a separate entry of the source. Where two headings read alike, the source gives them in different places.

Assays:
[1] = tested on: fibroblasts; format: cell-based
[2] = tested on: NPC1 protein; format: cell-based
[3] = molecular target: recombinant cathepsin L (Homo sapiens, UniProt P07711); assay: Cathepsin L assay; format: biochemical; conditions: 10 μM and dose-response
[4] = molecular target: recombinant cathepsin B (Homo sapiens, UniProt P07858); assay: Cathepsin B assay; format: biochemical; conditions: 10 μM and dose-response
[5] = tested on: EBOV; conditions: cited from earlier work
[6] = tested on: Ebola VLP; format: cell-based, Ebola virus
[7] = read-out: IC50 of previously reported EBOV inhibitors in vitro

recombinant cathepsin L, sequence (P07711 114-333): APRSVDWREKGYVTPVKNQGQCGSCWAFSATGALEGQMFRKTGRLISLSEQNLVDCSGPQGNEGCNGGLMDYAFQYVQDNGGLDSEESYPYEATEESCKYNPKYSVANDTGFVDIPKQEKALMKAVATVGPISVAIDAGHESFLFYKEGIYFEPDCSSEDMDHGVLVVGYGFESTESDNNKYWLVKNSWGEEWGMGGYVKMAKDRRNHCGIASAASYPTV

Structure (SMILES)	LysoTracker staining (enlargement of lysosome size) [1]	further results
CCN(CC)CCO[C@H]1CC[C@@]2(C)C(=CC[C@@H]3[C@@H]2CC[C@]2(C)C(=O)CC[C@@H]32)C1.Cl [U18666A, 3-β-(2-[diethylamino]ethoxy)-androst-5-en-17-one, monohydrochloride]	increased LysoTracker staining	Cholesterol accumulation (filipin staining), impairment of NPC1 protein function [2]: increased filipin staining
CN1[C@@H]2CC[C@H]1C[C@@H](OC1c3ccccc3CCc3ccccc31)C2 [Deptropine]	increased LysoTracker staining	Inhibition of enzymatic activity of cathepsin L [3]: inhibited; also recorded: blocking cathepsin L activity
CC(=O)N(C)C1(c2ccccc2)CCN(CCC[C@]2(c3ccc(Cl)c(Cl)c3)CCCN(C(=O)c3ccccc3)C2)CC1 [Osanetant]	increased LysoTracker staining; also recorded: induces the enlargement of lysosomes	
CC(C)(C)c1ccc(C(=O)CCCN2CCC(OC(c3ccccc3)c3ccccc3)CC2)cc1 [Ebastine]	increased LysoTracker staining	
Cc1ccc(CN2CCCN(C)C3(CCN(C)CC3)C2)cc1C [ZINC67869167]	increased LysoTracker staining; also recorded: induced enlargement of lysosomes	
Cc1[nH]c2c(CN3CC(CO)C(CN4CCCC4)C3)cccc2c1C (centres unmarked) [ZINC91973695]	increased LysoTracker staining; also recorded: induced enlargement of lysosomes	
CN(C)c1ccccc1CN1CCCN(Cc2ccccc2N(C)C)C1c1ccncc1 [GANT61]	increased LysoTracker staining; also recorded: caused enlargement of lysosomes	Inhibition of enzymatic activity of cathepsin L [3]: inhibited; Inhibition of enzymatic activity of cathepsin B [4]: inhibited
COc1ccc2cc1Oc1ccc(cc1)C[C@H]1c3cc(c(OC)cc3CCN1C)Oc1c(OC)c(OC)cc3c1[C@H](C2)N(C)CC3 [Tetrandrine]	increased LysoTracker staining	
COC(=O)Nc1nc2ccc(C(=O)c3cccs3)cc2[nH]1 [nocodazole]		IC50 of previously reported EBOV inhibitors in vitro [5]: sub-micromolar
CCN(CC)CCNC(=O)c1c(C)[nH]c(/C=C2\C(=O)Nc3ccc(F)cc32)c1C [sunitinib]		IC50 [5, 7]: 1.91 µM
COc1cc2nc(N3CCCN(C)CC3)nc(NC3CCN(Cc4ccccc4)CC3)c2cc1OC [BIX-01294]	increased LysoTracker staining	Potency [6]: nanomolar range; also recorded: sub-micromolar
COc1cc2c(Oc3ccc4[nH]c(C)cc4c3F)ncnc2cc1OCCCN1CCCC1 [Cediranib]	increased LysoTracker staining	
Cc1cn(-c2cc(NC(=O)c3ccc(C)c(Nc4nccc(-c5cccnc5)n4)c3)cc(C(F)(F)F)c2)cn1 [nilotinib]		IC50 [5, 7]: 24.3 µM
CC[C@]1(O)C[C@@H]2CN(CCc3c([nH]c4ccccc34)[C@@](C(=O)OC)(c3cc4c(cc3OC)N(C)[C@H]3[C@@](O)(C(N)=O)[C@H](O)[C@]5(CC)C=CCN6CC[C@]43[C@@H]65)C2)C1 [Vindesine]		Potency [6]: nanomolar range
CC[C@]1(O)C[C@@H]2CN(CCc3c([nH]c4ccccc34)[C@@](C(=O)OC)(c3cc4c(cc3OC)N(C)[C@H]3[C@@](O)(C(=O)OC)[C@H](OC(C)=O)[C@]5(CC)C=CCN6CC[C@]43[C@@H]65)C2)C1 [Vinblastine]		IC50 ([5]; read-out: Published Compound (IC50)): 0.048 µM
